Experimental data as given in ChEMBL document CHEMBL1148416, “2-Alkylsulfanyl estrogen derivatives: synthesis of a novel class of multi-targeted anti-tumour agents” (Bioorg Med Chem Lett, 2004).

test system: MCF7; experiment: Anti-proliferative activity against MCF-7 human breast cancer cells was determined by using MCF-7 plate assay; format: functional, cell-based

Compound	IC50 [µM]
CCSc1cc2c(cc1O)CCC1[C@@H]2CC[C@]2(C)C(=O)CC[C@@H]12 (single isomer, unassigned)	31.9
CCSc1cc2c(cc1OS(N)(=O)=O)CC[C@@H]1[C@@H]2CC[C@]2(C)[C@@H](O)CC[C@@H]12	35.3
CSc1cc2c(cc1OS(N)(=O)=O)CC[C@@H]1[C@@H]2CC[C@]2(C)[C@@H](O)CC[C@@H]12	0.43
CSc1cc2c(cc1OS(N)(=O)=O)CCC1[C@@H]2CC[C@]2(C)C(=O)CC[C@@H]12 (single isomer, unassigned)	0.4
COc1cc2c(cc1O)CC[C@@H]1[C@@H]2CC[C@]2(C)[C@@H](O)CC[C@@H]12 [2-METHOXYESTRADIOL]	2.39
C[C@]12CC[C@@H]3c4ccc(OS(N)(=O)=O)cc4CCC3[C@@H]1CCC2=O (single isomer, unassigned) [EMATE]	22.8
CSc1cc2c(cc1O)CCC1[C@@H]2CC[C@]2(C)C(=O)CC[C@@H]12 (single isomer, unassigned)	33.4
CSc1cc2c(cc1O)CC[C@@H]1[C@@H]2CC[C@]2(C)[C@@H](O)CC[C@@H]12	3.96
